Where a name gives a salt, the structure may show the parent alone.
Tested on: caviar extract
Assay: Antibody induction against orally fed caviar extract in mice, measured by ELISA
Assay type: in vivo
Settings: Balb/c mice, gastric acid reducing agent with 2 mg caviar protein extract orally, fed simultaneously or with a time delay, not against daily diet; for induction of IgE antibodies against caviar extract: ELISA OD 405/450 nm
Description: Four groups (A to D) with five Balb/c mice each were treated in the following way: • Group A: Oral administration of Zantac (ULSAL®, active agent: 20 microg ranitidine per mouse, single dose per mouse one hour before feeding […] with antigen) and antigen (2 mg caviar protein extract per mouse), • Group B: Oral administration of a mixture of Ulcogant (active agent: 2 mg sucralfate per mouse) and antigen (2 mg caviar protein extract per mouse), • Group C: Comparative example with intraperitoneal administration of caviar antigen (2 mg) and aluminum hydroxide as an adjuvant, • Group D: Comparative example with oral administration of antigen (2 mg).
The antigen used was caviar extract. As a reference regarding the caviar extract used, the publication by Untersmayr E, Schöll I, Förster-Waldl E, Walter F, Riemer A, Boltz-Nitulescu G, Scheiner O, Jensen-Jarolim E. J Allergy and Immun. 2002; 109 (6): 1034-5 is cited. The antigen contained therein has a molecular weight of 118 kDa.
The obtained results are rendered in FIG. 1. […] Groups A and B were given the antigen in conjunction with a gastric acid reducing agent orally according to the invention, while for comparison purposes group C was immunized according to a standard scheme for IgE induction, and group D was given the antigen orally without gastric acid reducing agent.

Molecule | induction of IgE antibodies against caviar extract | induction of IgG antibodies against caviar extract
aluminum sucrose hydrogen sulfate [Ulcogant] | lasting induction | lasting induction
CNC(=C[N+](=O)[O-])NCCSCc1ccc(CN(C)C)o1 [Zantac, ranitidine hydrochloride] | lasting induction | lasting induction

— patent publication US20100183684A1, “Oral vaccination” (Bio Life Science, priority 2002, published 2010)
